Results on 2 compounds are retold here after ChEMBL document CHEMBL1142755, “A macromolecular prodrug of doxorubicin conjugated to a biodegradable cyclotriphosphazene bearing a tetrapeptide” (2005).

For this experiment, the system named is L1210. The experiment in a line: In vitro cytotoxicity against Leukemia L1210 cell line. It counts as functional. To be noted: Mus musculus.

Where a name gives a salt, the structure may show the parent alone.

Regarding `COc1cccc2c1C(=O)c1c(O)c3c(c(O)c1C2=O)C[C@@](O)(C(=O)CO)C[C@@H]3O[C@H]1C[C@H](N)[C@H](O)[C@H](C)O1` [DOXORUBICIN HYDROCHLORIDE], for the setting “read-out: ED50 (the source's name)”, the EC50 turned out to be 100 nM. CISPLATIN: the ED50 came out at 1000 nM.
